Measured values reported in US12497396B2, “Nitrogen-containing heterocyclic derivatives, method therefor and application therefor as inhibitors of KRAS G12C for the treatment of cancers” (SHANGHAI HANSOH BIOMEDICAL CO., LTD., priority 2019, dated 2025).
pIC50: −log10 of the molar value.

Assays:
[1] = system: NCI-H358 cells (KRAS G12C mutant cell line); experiment: Inhibition of NCI-H358 cell proliferation (CellTiter-Glo, 72 h); type: cell-based, human; settings: Homo sapiens
Summary of the method: (§1)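 Cells were seeded overnight at 37 °C, 5% CO2, then exposed to serially diluted compound (DMSO/medium) alongside a solvent control for 72 h. Viability was read by CellTiter-Glo luminescence, and IC50 was derived by nonlinear regression of inhibition rate against concentration.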

[2] = system: Mia PaCa-2 cells (KRAS G12C mutant cell line); experiment: Inhibition of Mia PaCa-2 cell proliferation (CellTiter-Glo, 72 h); type: cell-based, human; settings: Homo sapiens
Summary of the method: as §1

[3] = system: phosphorylated ERK in KRAS G12C mutant cells Mia PaCa-2; experiment: Inhibition of phosphorylated ERK level in Mia PaCa-2 cells (LANCE Ultra); type: cell-based; settings: Homo sapiens, 2 hours, read-out: Mia PaCa-2 pERK IC50
From the text: As a preferred embodiment of the present disclosure, the method for detecting the inhibitory activity of phosphorylated ERK level is as follows: through cell culture, adding different concentrations of compound solutions to the cultured cells, continuing the culture for a period of time, lysing the cells, followed by centrifugation and […]; • further, the method of cell culture is: adjusting the cells to a suitable cell concentration with a complete medium, preferably the cell concentration is 1×10^6/mL, and spreading the cell suspension on a well plate for culture.
When Mia PaCa-2 cells were cultured to the appropriate fusion level, Mia PaCa-2 cells were collected, and the cell density was adjusted to 1×10^6/mL using complete culture medium, the cell suspension was spread on a 96-well plate, 50 μL per well, and placed adherent to the wall in a 37° C., 5% CO2 incubator overnight, compound solutions with different concentrations were prepared using DMSO and complete culture medium, a solvent control was set, the compound solution was added to a 96-well plate, 25 μL per well, and placed in a 37° C., 5% CO2 incubator for 2 hours of continuous culture, the supernatant was discarded from the cell culture plate, 50 μL of lysis solution was added to each well, and lysing was performed for 30 minutes by shaking at room temperature, then the mixture was centrifuged at 1000 rpm for 1 minute, 15 μL of supernatant was transferred to 384 well plate, 5 μL of detection mixture (Eu-labeled anti-ERK1/2 (T202-Y204) antibody with final concentration of 0.5 nM and ULight labeled anti-ERK1/2 antibody with final concentration of 5 nM) was added to each well, centrifuged at 1000 rpm for 1 minute and mixed uniformly, the reaction was carried out overnight at room temperature, the plate was read with BioTek Synergy H1, and the signal values was detected at 620 nm and 665 nm emission wavelengths by time-resolved fluorescence program.
The ratio of the signal values at 665 nm and 620 nm emission wavelength were calculated, and the ratio was used to calculate the inhibition rate, the concentration and the inhibition rate were fitted to a nonlinear regression curve using Graphpad Prism software, then the IC50 value was obtained.

human KRAS G12C protein = biological target: T1, human KRAS G12C protein (Homo sapiens, UniProt P01116, G12C); experiment: Thermal shift: melting temperature of KRAS G12C protein; type: binding
T1 construct: purchased Beijing SinoBiological Co., Ltd. 12259-H07E2
Summary of the method: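 5.37 μM (final) human KRAS G12C in […] HEPES pH 7.5, 1 mM DTT, 150 mM NaCl, 5×SYPRO Orange, incubated 1 h at room temperature in the dark. Melt curve run from 25 to 95° C at 0.03° C/s. ΔTm = treated Tm minus DMSO control Tm.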

pIC50 [1]: 7.64 | pIC50 [2]: 7.52 | pIC50 [3]: 7.52 | Tm (° C.) (human KRAS G12C protein; KRAS G12C protein 5.37 μM with compound 10 μM, 1 hour incubation): 64.4 °C | ΔTm at 10 µM (human KRAS G12C protein; compound 10 μM, Tm minus Tm of DMSO solvent control): 15.8 °C
Compound: C=CC(=O)N1CCN(c2nc(=O)n(-c3c(SC)ccnc3C(C)C)c3nc(-c4c(N)cccc4F)c(F)cc23)[C@@H](C)C1 [Embodiment 134, 4-((S)-4-acryloyl-2-methylpiperazin-1-yl)-7-(2-amino-6-fluorophenyl)-6-fluoro-1-(2-isopropyl-4-(methylthio)pyridin-3-yl) pyrido [2,3-d] pyrimidin-2 (1H)-one]
